In patent publication US11873298B2, “Compounds and uses thereof” (JANSSEN PHARMACEUTICA NV, priority 2017, dated 2024):
Where “and” joins values, the source holds several entries; their conditions need not be identical. Equal values may be shown once.

Columns and labels:
Format in all cases: cell-based
SCD5 = target: T1, SCD5 (Homo sapiens, UniProt Q86SK9); test: Growth inhibition of humanized yeast strain expressing SCD5 as sole desaturase; settings: humanized yeast strain expressing SCD5
T1 construct: host or cells: S. cerevisiae ole1Δ strain (W303 pdr1Δ pdr3Δ background), plasmid pRS316 with TDH3 promoter and CYC1 terminator
T1 sequence (Q86SK9 1-330): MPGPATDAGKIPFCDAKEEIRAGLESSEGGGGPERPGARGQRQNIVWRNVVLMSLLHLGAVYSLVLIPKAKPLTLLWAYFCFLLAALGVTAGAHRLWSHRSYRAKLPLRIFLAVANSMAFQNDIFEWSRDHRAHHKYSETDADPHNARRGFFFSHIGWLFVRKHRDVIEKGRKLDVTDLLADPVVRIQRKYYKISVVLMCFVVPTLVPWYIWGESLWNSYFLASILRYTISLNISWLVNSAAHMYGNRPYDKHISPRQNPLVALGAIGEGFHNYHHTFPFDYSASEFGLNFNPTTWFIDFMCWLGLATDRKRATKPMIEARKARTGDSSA
Procedure, shortened: (§1)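 OD600 growth read-out. ole1Δ yeast, pdr1Δ pdr3Δ, with Ole1/SCD1/SCD5 on a plasmid; SX-Ura media throughout; 2× cell density 0.02 in CSM-Galactose; DMSO compound dilutions; humidified 30° C.; Ole1 stopped at 24 h, SCD1/SCD5 at 40 h.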

Ole1 = target: T2, Ole1 (Saccharomyces cerevisiae, UniProt P21147); test: Growth inhibition of yeast strain expressing Ole1 as sole desaturase; settings: yeast strain expressing Ole1 as sole desaturase
T2 construct: expressed in transfected cells; host or cells: S. cerevisiae ole1Δ strain (W303 pdr1Δ pdr3Δ background), plasmid pRS316 with TDH3 promoter and CYC1 terminator
T2 sequence (P21147 1-510): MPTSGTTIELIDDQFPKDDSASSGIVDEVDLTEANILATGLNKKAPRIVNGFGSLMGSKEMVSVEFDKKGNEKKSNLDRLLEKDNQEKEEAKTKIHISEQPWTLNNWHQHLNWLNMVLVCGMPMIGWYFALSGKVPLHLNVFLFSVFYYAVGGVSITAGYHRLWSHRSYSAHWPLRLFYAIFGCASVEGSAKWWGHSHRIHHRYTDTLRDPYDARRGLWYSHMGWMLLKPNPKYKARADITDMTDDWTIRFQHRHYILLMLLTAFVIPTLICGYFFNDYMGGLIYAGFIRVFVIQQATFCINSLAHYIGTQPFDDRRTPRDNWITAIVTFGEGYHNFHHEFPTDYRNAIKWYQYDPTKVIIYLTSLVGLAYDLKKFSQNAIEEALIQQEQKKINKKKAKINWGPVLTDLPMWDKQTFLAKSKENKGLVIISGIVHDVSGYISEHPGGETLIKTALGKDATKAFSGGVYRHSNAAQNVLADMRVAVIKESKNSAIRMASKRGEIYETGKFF
Procedure, shortened: as §1

SCD1 = target: T3, SCD1 (Homo sapiens, UniProt O00767); test: Growth inhibition of humanized yeast strain expressing SCD1 as sole desaturase; settings: humanized yeast strain expressing SCD1
T3 construct: host or cells: S. cerevisiae ole1Δ strain (W303 pdr1Δ pdr3Δ background), plasmid pRS316 with TDH3 promoter and CYC1 terminator
T3 sequence (O00767 1-359): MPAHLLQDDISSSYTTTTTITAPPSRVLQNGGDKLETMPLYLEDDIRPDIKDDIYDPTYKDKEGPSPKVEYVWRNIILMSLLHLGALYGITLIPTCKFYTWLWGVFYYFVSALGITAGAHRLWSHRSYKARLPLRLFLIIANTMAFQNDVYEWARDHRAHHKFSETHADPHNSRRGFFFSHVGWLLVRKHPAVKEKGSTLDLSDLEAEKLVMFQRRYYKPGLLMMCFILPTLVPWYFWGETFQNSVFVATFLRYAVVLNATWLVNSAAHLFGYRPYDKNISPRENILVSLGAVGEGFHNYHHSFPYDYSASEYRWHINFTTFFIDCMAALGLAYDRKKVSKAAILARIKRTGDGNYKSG
Procedure, shortened: as §1

SMILES | IC50 (SCD5) [µM] | SCD5 % Max Inhibition (SCD5) | IC50 (Ole1) [µM] | OLE1 % Max Inhibition (Ole1) | IC50 (SCD1) [µM] | SCD1 % Max Inhibition (SCD1)
CCOc1ccc(-c2noc(C3CCN(C(=O)[C@H]4CCN(C(=O)c5ccccc5)C4)CC3)n2)cc1OC [Compound 234] | > 45 | 76.83% | > 45 | 84.80% | > 45 | 68.91%
CCOc1ccc(-c2noc(C3CCN(C(=O)C4CN(c5ccccc5)C(=O)CO4)CC3)n2)cc1OC (centres unmarked) [Compound 235] | > 45 | 87.47% | > 45 | 84.04% | > 45 | 74.46%
Cc1nn(C)c2cc(-c3noc(C4CCN(C(=O)C5CN(C(=O)c6ccccc6)C5)CC4)n3)ccc12 [Compound 236] | > 45 | 3.14% | > 45 | 8.46% | > 45 | 77.23%
CCOc1ccc(-c2noc(C3CCN(C(=O)C4CN(C(=O)c5ccccc5)C4)CC3)n2)cc1OC [Compound 237] | 32.6 | 45.34% | > 45 | 18.53% | > 45 | 71.76%
Cn1c(=O)n(C)c2cc(-c3noc(C4CCN(C(=O)CNC(=O)c5ccncc5)CC4)n3)ccc21 [Compound 238] | 30 | 69.63% | > 45 | 4.93% | > 45 | 70.06%
Cc1nn(C)c2cc(-c3noc(C4CCN(C(=O)[C@H]5CCN(C(=O)c6ccccc6)C5)CC4)n3)ccc12 [Compound 239] | > 45 | 6.02% | > 45 | 29.21% | > 45 | 75.58%
Cc1nn(C)c2cc(-c3noc(C4CCN(C(=O)[C@H]5CC(=O)N(c6ccccc6)C5)C(C)C4)n3)ccc12 (some centres unmarked) [Compound 240] | > 45 | 12.95% | > 45 | 4.30% | > 45 | 66.85%
Cc1nn(C)c2cc(-c3noc(C4CCN(C(=O)[C@H]5CC(=O)N(c6ccccc6)C5)CC4(F)F)n3)ccc12 (some centres unmarked) [Compound 241] | > 45 | 16.97% | > 45 | 6.15% | > 45 | 91.61%
N#CCC1CN(c2noc(C3CCN(C(=O)C4CC(=O)N(c5ccccc5)C4)CC3)n2)C1 (centres unmarked) [Compound 242] | > 45 | 79.22% | > 45 | 95.59% | > 45 | 101.23%
Cn1ncc2c1CN(c1noc(C3CCN(C(=O)C4CC(=O)N(c5ccccc5)C4)CC3)n1)CC2 (centres unmarked) [Compound 243] | > 45 | 72.11% | > 45 | 94.60% | > 45 | 94.50%
Cc1nn(C)c2cc(-c3noc(C4CCN(C(=O)CNC(=O)c5ccccc5)CC4(F)F)n3)ccc12 (centres unmarked) [Compound 244] | > 45 | 2.85% and 2.47% | > 45 | 3.34% and 1.29% | > 45 | 15.54% and 8.51%
Cc1nn(C)c2cc(-c3noc(C4CCN(C(=O)C5CC(=O)N(CC6CC6)C5)CC4)n3)ccc12 (centres unmarked) [Compound 245] | > 45 | 66.96% | > 45 | 95.26% | > 45 | 77.70%
Cc1nn(C)c2cc(-c3noc(N4CCN(C(=O)[C@H]5CC(=O)N(c6ccccc6)C5)CC4)n3)cnc12 [Compound 246] | > 45 | 66.03% | > 45 | 13.06% | – | 77.22%
N#Cc1ccc(-c2noc(C3CCN(C(=O)[C@H]4CC(=O)N(c5ccccc5)C4)CC3)n2)s1 [Compound 247] | > 45 | 72.46% | > 45 | 98.49% | – | 79.89%
O=C([C@H]1CC(=O)N(c2ccccc2)C1)N1CCC(c2nc(-c3ccc(Br)s3)no2)CC1 [Compound 248] | > 45 | 13.59% | > 45 | 73.12% | – | 3.09%
COc1cc(-c2noc(C3CCN(C(=O)CNC(=O)c4ccccc4)CC3)n2)ccc1OC1CC1 [Compound 249] | 41.7 | 61.88% | > 45 | 88.69% | – | 80.12%
Cc1nn(C)c2cc(-c3nsc(C4CCN(C(=O)CNC(=O)c5ccccc5)CC4)n3)ccc12 [Compound 250] | > 45 | 14.48% | > 45 | 4.41% | – | 86.09%
Cc1nn(C)c2cc(-c3nsc(C4CCN(C(=O)C5CC(=O)N(c6ccccc6)C5)CC4)n3)ccc12 (centres unmarked) [Compound 251] | > 45 | 20.59% | > 45 | 7.80% | > 45 | 83.15%
CNC(=O)c1ccc(-c2noc(C3CCN(C(=O)[C@H]4CC(=O)N(c5ccccc5)C4)CC3)n2)cn1 [Compound 252] | > 45 | 39.69% | > 45 | 27.85% | – | 80.73%
COc1cc(-c2noc(C3CCN(C(=O)CNC(=O)c4ccccc4)CC3)n2)ccc1OC(F)(F)F [Compound 253] | > 45 | 63.11% | > 45 | 106.42% | – | 62.07%
CC(C)(C#N)C1CN(c2noc(C3CCN(C(=O)C4CC(=O)N(c5ccccc5)C4)CC3)n2)C1 (centres unmarked) [Compound 254] | > 45 | 83.13% | > 45 | 92.77% | > 45 | 69.80%
Cc1nn(C)c2cc(-c3noc(C4CCN(C(=O)C5CC(=O)N(CC6COC6)C5)CC4)n3)ccc12 (centres unmarked) [Compound 255] | 30 | 64.50% | > 45 | 96.25% | > 45 | 72.70%
Cn1c(=O)n(C)c2cc(-c3noc(C4CCN(C(=O)[C@H]5CC(=O)N(c6ccccn6)C5)CC4)n3)ccc21 [Compound 256] | > 45 | 72.11% | > 45 | 4.16% | – | 76.04%
Cc1nn(C)c2cc(-c3noc(N4CCN(C(=O)c5ccccc5)CC4)n3)ccc12 [Compound 261] | > 45 | 82.31% | > 45 | 94.41% | – | 73.42%
Cc1nn(C)c2cc(-c3noc(N4CCN(C(=O)c5ccccc5Cl)CC4)n3)ccc12 [Compound 262] | > 45 | 10.38% | > 45 | 23.99% | – | 41.84%
